Laboratory results: patent US11339171B2, “MDM2 inhibitors” (Gan & Lee Pharmaceuticals, priority 2017, dated 2022)

What was measured:
MDM2 = molecular target: T1, MDM2 (Homo sapiens, UniProt Q00987); experiment: Inhibition test of MDM2-P53 (GST-MDM2, Biotin-P53, Anti-GST-Tb, SA-XL665); assay type: binding
T1 construct: made in house
Outline: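 Binding was measured by TR-FRET with GST-MDM2 at 4 nM final in PBS with 0.1% BSA, 5 mM DTT and 1 mM AEBSF. Compounds were tested as twelve-point 5-fold dilutions and incubated with the detection mix for 90 min at 25 °C with shaking before plate-reader reading and curve fitting.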

[1] = system: human osteosarcoma cell line SJSA-1; experiment: Inhibition of proliferation of human osteosarcoma cell line SJSA-1 (DAPI staining, In Cell Analyzer); conditions: Homo sapiens, SJSA-1, 72 h, read-out: IC50 (nM), inhibitory activity on proliferation of human osteosarcoma cell line SJSA-1, SJSA-1, incubated 72 h

T1 sequence (Q00987 whole entry): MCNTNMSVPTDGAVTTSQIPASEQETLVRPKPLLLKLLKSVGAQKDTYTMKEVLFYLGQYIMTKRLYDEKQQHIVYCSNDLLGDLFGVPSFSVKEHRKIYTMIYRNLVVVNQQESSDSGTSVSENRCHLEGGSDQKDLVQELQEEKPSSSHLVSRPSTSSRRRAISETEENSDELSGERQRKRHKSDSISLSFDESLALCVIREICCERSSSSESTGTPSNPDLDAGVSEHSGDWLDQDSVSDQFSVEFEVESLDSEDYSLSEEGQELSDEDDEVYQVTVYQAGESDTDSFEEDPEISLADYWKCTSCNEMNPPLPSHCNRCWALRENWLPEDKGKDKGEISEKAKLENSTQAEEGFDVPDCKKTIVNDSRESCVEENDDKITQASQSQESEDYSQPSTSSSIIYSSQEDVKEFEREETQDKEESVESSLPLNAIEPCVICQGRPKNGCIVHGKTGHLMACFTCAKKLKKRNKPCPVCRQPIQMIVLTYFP

SMILES | IC50 (MDM2) [nM] | IC50 [1] [nM]
COc1ccc(N2C(=O)c3nc(-c4ccc(N)cc4OC)n(C(C)C)c3[C@@]23C(=O)Nc2cc(Cl)ccc23)cc1Cl [Example S-71, (S)-2′-(4-amino-2-methoxyphenyl)-6-chloro-5′-(3-chloro-4-methoxyphenyl)-3′-isopropyl-3′H-spiro[dihydroindole-3,4′-pyrrolo[3,4-d]imidazole]-2,6′(5′H)-dione] | 2.96 | 292
COc1cc(N)ccc1-c1nc2c(n1C(C)C)[C@@]1(C(=O)Nc3cc(Cl)ccc31)N(c1ccc(F)c(Cl)c1)C2=O [Example S-73, (S)-2′-(4-amino-2-methoxyphenyl)-6-chloro-5′-(3-chloro-4-fluorophenyl)-3′-isopropyl-3′H-spiro[dihydroindole-3,4′-pyrrolo[3,4-d]imidazole]-2,6′(5′H)-dione] | 1.1 | 251
COc1cc(N)c(C)cc1-c1nc2c(n1C(C)C)[C@@]1(C(=O)Nc3cc(Cl)ccc31)N(c1cc(Cl)ccc1C)C2=O [Example S-74, (S)-2′-(4-amino-2-methoxy-5-methylphenyl)-6-chloro-5′-(5-chloro-2-methylphenyl)-3′-isopropyl-3′H-spiro[dihydroindole-3,4′-pyrrolo[3,4-d]imidazole]-2,6′(5′H)-dione] | 0.98 | 7.85
COc1cc(N)c(F)cc1-c1nc2c(n1C(C)C)[C@@]1(C(=O)Nc3cc(Cl)ccc31)N(c1cc(Cl)ccc1C)C2=O [Example S-75, (S)-2′-(4-amino-5-fluoro-2-methoxyphenyl)-6-chloro-5′-(5-chloro-2-methylphenyl)-3′-isopropyl-3′H-spiro[dihydroindole-3,4′-pyrrolo[3,4-d]imidazole]-2,6′(5′H)-dione] | 0.97 | 9.84
COc1c(F)cccc1-c1nc2c(n1C(C)C)[C@@]1(C(=O)Nc3cc(Cl)ccc31)N(c1cc(Cl)ccc1C)C2=O [Example S-76, (S)-6-chloro-5′-(5-chloro-2-methylphenyl)-2′-(3-fluoro-2-methoxyphenyl)-3′-isopropyl-3′H-spiro[dihydroindole-3,4′-pyrrolo[3,4-d]imidazole]-2,6′(5′H)-dione] | 4.23 | 309
COc1cc(C(N)=O)ccc1-c1nc2c(n1C(C)C)[C@@]1(C(=O)Nc3cc(Cl)ccc31)N(c1cc(Cl)ccc1C)C2=O [Example S-77, (S)-4-(6-chloro-5′-(5-chloro-2-methylphenyl)-3′-isopropyl-2,6′-dioxo-5′,6′-dihydro-3′H-spiro[dihydroindole-3,4′-pyrrolo[3,4-d]imidazole]-2′-yl)-3-methoxybenzamide] | 1.86 | 535
COc1cc(N(C)C)c(F)cc1-c1nc2c(n1C(C)C)[C@@]1(C(=O)Nc3cc(Cl)ccc31)N(c1cc(Cl)ccc1C)C2=O [Example S-78] | 1.42 | 7.88
COc1cccc(OC)c1-c1nc2c(n1C(C)C)[C@@]1(C(=O)Nc3cc(Cl)ccc31)N(c1cc(Cl)ccc1C)C2=O [Example S-79, (S)-6-chloro-5′-(5-chloro-2-methylphenyl)-2′-(2,6-dimethoxyphenyl)-3′-isopropyl-3′H-spiro[dihydroindole-3,4′-pyrrolo[3,4-d]imidazole]-2,6′(5′H)-dione] | 1.89 | 72.4
COc1ccc(-c2nc3c(n2C(C)C)[C@@]2(C(=O)Nc4cc(Cl)ccc42)N(c2cc(Cl)ccc2F)C3=O)c(OC)c1 [Example S-80, (S)-6-chloro-5′-(5-chloro-2-fluorophenyl)-2′-(2,4-dimethoxyphenyl)-3′-isopropyl-3′H-spiro[dihydroindole-3,4′-pyrrolo[3,4-d]imidazole]-2,6′(5′H)-dione] | 2.56 | 16.9
COc1cc(N(C)C)ccc1-c1nc2c(n1C(C)C)[C@@]1(C(=O)Nc3cc(Cl)ccc31)N(c1cc(Cl)ccc1F)C2=O [Example S-81, (S)-6-chloro-5′-(5-chloro-2-fluorophenyl)-2′-(4-(dimethylamino)-2-methoxyphenyl)-3′-isopropyl-3′H-spiro[dihydroindole-3,4′-pyrrolo[3,4-d]imidazole]-2,6′(5′H)-dione] | 1.23 | 82.8
COc1nc(N(C)C)ncc1-c1nc2c(n1C(C)C)[C@@]1(C(=O)Nc3cc(Cl)ccc31)N(c1cc(Cl)ccc1C)C2=O [Example S-82, (S)-6-chloro-5′-(5-chloro-2-methylphenyl)-2′-(2-(dimethylamino)-4-methoxypyrimidin-5-yl)-3′-isopropyl-3′H-spiro[dihydroindole-3,4′-pyrrolo[3,4-d]imidazole]-2,6′(5′H)-dione] | 1.16 | 7.43
COc1cc(OC)c(-c2nc3c(n2C(C)C)[C@@]2(C(=O)Nc4cc(Cl)ccc42)N(c2cc(Cl)ccc2C)C3=O)cc1C [Example S-83, (S)-6-chloro-5′-(5-chloro-2-methylphenyl)-2′-(2,4-dimethoxy-5-methylphenyl)-3′-isopropyl-3′H-spiro[dihydroindole-3,4′-pyrrolo[3,4-d]imidazole]-2,6′(5′H)-dione] | 2.23 | 6.21
COc1cc(C(F)(F)F)ccc1-c1nc2c(n1C(C)C)[C@@]1(C(=O)Nc3cc(Cl)ccc31)N(c1cc(Cl)ccc1C)C2=O [Example S-85, (S)-6-chloro-5′-(5-chloro-2-methylphenyl)-3′-isopropyl-2′-(2-methoxy-4-(trifluoromethyl)phenyl)-3′H-spiro[dihydroindole-3,4′-pyrrolo[3,4-d]imidazole]-2,6′(5′H)-dione] | 3.3 | 40.2
COc1cc(C2CC2)ccc1-c1nc2c(n1C(C)C)[C@@]1(C(=O)Nc3cc(Cl)ccc31)N(c1cc(Cl)ccc1C)C2=O [Example S-86, (S)-6-chloro-5′-(5-chloro-2-methylphenyl)-2′-(4-cyclopropyl-2-methoxyphenyl)-3′-isopropyl-3′H-spiro[dihydroindole-3,4′-pyrrolo[3,4-d]imidazole]-2,6′(5′H)-dione] | 2.59 | 21.2
COc1cc(OC(F)(F)F)ccc1-c1nc2c(n1C(C)C)[C@@]1(C(=O)Nc3cc(Cl)ccc31)N(c1cc(Cl)ccc1C)C2=O [Example S-87, (S)-6-chloro-5′-(5-chloro-2-methylphenyl)-3′-isopropyl-2′-(2-methoxy-4-(trifluoromethoxy)phenyl)-3′H-spiro[dihydroindole-3,4′-pyrrolo[3,4-d]imidazole]-2,6′(5′H)-dione] | 3.31 | 11.1
CCOc1ccc(-c2nc3c(n2C(C)C)[C@@]2(C(=O)Nc4cc(Cl)ccc42)N(c2cc(Cl)ccc2C)C3=O)c(OC)c1 [Example S-88, (S)-6-chloro-5′-(5-chloro-2-methylphenyl)-2′-(4-ethoxy-2-methoxyphenyl)-3′-isopropyl-3′H-spiro[dihydroindole-3,4′-pyrrolo[3,4-d]imidazole]-2,6′(5′H)-dione] | 2.34 | 77.3
COc1cc(C(C)C)ccc1-c1nc2c(n1C(C)C)[C@@]1(C(=O)Nc3cc(Cl)ccc31)N(c1cc(Cl)cnc1C)C2=O [Example S-89, (S)-6-chloro-5′-(5-chloro-2-methylpyridin-3-yl)-3′-isopropyl-2′-(4-isopropyl-2-methoxyphenyl)-3′H-spiro[dihydroindole-3,4′-pyrrolo[3,4-d]imidazole]-2,6′(5′H)-dione] | 4.32 | 43.2
COc1nc(N)ncc1-c1nc2c(n1C(C)C)[C@@]1(C(=O)Nc3cc(Cl)ccc31)N(c1cc(Cl)ccc1C)C2=O [Example S-90, (S)-2′-(2-amino-4-methoxypyrimidin-5-yl)-6-chloro-5′-(5-chloro-2-methylphenyl)-3′-isopropyl-3′H-spiro[dihydroindole-3,4′-pyrrolo[3,4-d]imidazole]-2,6′(5′H)-dione] | 1.38 | 255
COc1cc(N(C)C)c(C)cc1-c1nc2c(n1C(C)C)[C@@]1(C(=O)Nc3cc(Cl)ccc31)N(c1cc(Cl)ccc1C)C2=O [Example S-91, (S)-6-chloro-5′-(5-chloro-2-methylphenyl)-2′-(4-(dimethylamino)-2-methoxy-5-methylphenyl)-3′-isopropyl-3′H-spiro[dihydroindole-3,4′-pyrrolo[3,4-d]imidazole]-2,6′(5′H)-dione] | 3.56 | 14.4
COc1cc(OC)c(-c2nc3c(n2C(C)C)[C@@]2(C(=O)Nc4cc(Cl)ccc42)N(c2cc(Cl)ccc2C)C3=O)cc1F [Example S-92, (S)-6-chloro-5′-(5-chloro-2-methylphenyl)-2′-(5-fluoro-2,4-dimethoxyphenyl)-3′-isopropyl-3′H-spiro[dihydroindole-3,4′-pyrrolo[3,4-d]imidazole]-2,6′(5′H)-dione] | 1.72 | 19.9
CCOc1ccc(-c2nc3c(n2C(C)C)[C@@]2(C(=O)Nc4cc(Cl)ccc42)N(c2cc(Cl)ccc2F)C3=O)c(OC)c1 [Example S-94, (S)-6-chloro-5′-(5-chloro-2-fluorophenyl)-2′-(4-ethoxy-2-methoxyphenyl)-3′-isopropyl-3′H-spiro[dihydroindole-3,4′-pyrrolo[3,4-d]imidazole]-2,6′(5′H)-dione] | 4.72 | 309
COc1cc(OC(C)C)ncc1-c1nc2c(n1C(C)C)[C@@]1(C(=O)Nc3cc(Cl)ccc31)N(c1cccc(Cl)c1)C2=O [Example S-95, (S)-6-chloro-5′-(3-chlorophenyl)-2′-(6-isopropoxy-4-methoxypyridin-3-yl)-3′-isopropyl-3′H-spiro[dihydroindole-3,4′-pyrrolo[3,4-d]imidazole]-2,6′(5′H)-dione] | 1.92 | 49.5
CCOc1ncc(-c2nc3c(n2C(C)C)[C@@]2(C(=O)Nc4cc(Cl)ccc42)N(c2cc(Cl)ccc2F)C3=O)c(OC)n1 [Example S-97, (S)-6-chloro-5′-(5-chloro-2-fluorophenyl)-2′-(2-ethoxy-4-methoxypyrimidin-5-yl)-3′-isopropyl-3′H-spiro[dihydroindole-3,4′-pyrrolo[3,4-d]imidazole]-2,6′(5′H)-dione] | 3.94 | 167
